Results published in patent publication US9932339B2, “Helquats with heteroaromatic substituents, preparation thereof, and use thereof as G-quadruplex stabilizers” (USTAV ORGANICKE CHEMIE A BIOCHEMIE AV CR, V.V.I., priority 2014, dated 2018).

System: c-Myc27 oligonucleotide G-quadruplex
Assay: ECD melting curve of c-Myc27 oligonucleotide G-quadruplex with ligands
Assay type: binding
Conditions: ECD at 263 nm; molar ratio oligonucleotide:ligand 1:1 (5 μmol l^−1 each); Li+-cacodylate buffer
Protocol: ECD spectra were measured on J-815 spectrometer (Jasco, Japan). Measurement settings (Tab. 3), spectra saving and background subtraction was performed in a Spectra Manager software (Jasco, Japan).
For measurement of the temperature dependencies the cuvettes in the cuvette compartment were placed in the Peltier module, the temperature was controlled by the Spectra Manager software. Melting curves were measured at a wavelength which corresponds to the maximum difference in signal intensity of ECD spectra of oligonucleotide at 25 and 95° C., as shown in FIG. 1. Before and after measuring the melting curves, ECD spectra in extreme temperatures were measured, in order to verify the stability of the studied system.
Processing of the spectra was performed using Spectra Manager (Jasco, Japan). The resulting spectra were obtained from the measured sample spectrum after subtraction of background spectrum, which was spectrum of the solvent. Measuring of sample spectrum and background was conducted under identical conditions. ECD spectra are reported as ellipticity, labeled in the CD figures [mdeg], whose numerical value is associated with dimensionless circular dichroism ΔA (CDv=32980 ΔAv). This CD notations preserves conventions of the international journals in which articles from the field are published.
Stock solution of […] was prepared from c-Myc27 oligonucleotide by dissolution in H2O. The cuvette of 1 mm thickness was filled with 7 μl of oligonucleotide solution and 133 μl of Li^+-cacodylate buffer. Oligonucleotide solution in the cuvette was overlayed with mineral oil to measure temperature dependencies without concentration changes due to evaporation of the solvent at higher temperatures.
From stock solutions of the racemic ligands in DMSO at a concentration of […] solutions were prepared at a concentration of 140 μmol l^−1 by dissolving in H2O. Ligands were added to the solution of oligonucleotide under buffer/mineral oil interface using Hamilton microsyringe (5 μl of solution at a concentration of […]). The resulting molar ratio of oligonucleotide:ligand was 1:1.
The cuvette filled with c-Myc27 oligonucleotide solution in Li^+-cacodylate buffer (cc-Myc27=5 μmol l^−1) was first heated for 5 minutes at 95° C., at this temperature ECD spectrum was measured. Then the sample was cooled to 25° C., allowed to stabilize for 10 min and then ECD spectrum was measured again. Then, the melting curve of ECD oligonucleotide at 263 nm was measured in the temperature range 25-95° C. and for verification of the stability of the sample spectra the spectra were measured again at 95 and 25° C. Under the oil layer ligand solution (cligand=5 μmol l^−1) was added to a solution of oligonucleotide, the sample was thoroughly mixed and ECD spectrum measured at 25° C., the melting curve was obtained and again control spectra were measured at 95 and 25° C.
Decomposition of the G-quadruplex structure in the presence of ligands under influence of temperature was monitored at the wavelength corresponding to the maximum difference in signal intensities of ECD oligonucleotide/ligand at 25 and 95° C., i.e. at 263 nm. Thermal stability of G-quadruplex was monitored in the range of 25 to 95° C. and in a molar ratio of oligonucleotide:ligand=1:1. Example of influence of the studied ligand on the stability of G-quadruplex formed from c-Myc27 oligonucleotide is shown in FIG. 2.
The degree of G-quadruplex stabilization was expressed as change of melting temperature caused by the presence of G-quadruplex ligands (ΔTm): ΔTm=Tm,oligonucleotide+ligand−Tm,oligonucleotide (1), • where Tm,oligonucleotide+ligand is melting temperature of molecular system comprising the oligonucleotide and the ligand and Tm,oligonucleotide, the melting temperature of the oligonucleotide itself. Tab. 4 summarizes the changes in melting temperatures of c-Myc27 oligonucleotide G-quadruplex in the presence of studied ligands.

## Cc1c(C)c2c(c3c1CC[n+]1ccc(/C=C/c4cccc5c4oc4ccccc45)cc1-3)-c1c3ccccc3cc[n+]1CC2 (racemic) [MJA-C13-8, (rac)-(E)-13-(2-(dibenzo[b,d]furan-4-yl)vinyl)-6,7-dimethyl-4,5,8,9-tetrahydroisoquinolino[1,2-a]pyrido[1,2-k][2,9]phenanthroline-3,10-diium trifluoromethanesulfonate]
  ΔTm (° C.): 6.8 °C
